Measurements: paper PMC4159287, “Characterization of a Soluble Phosphatidic Acid Phosphatase in Bitter Melon (Momordica charantia)” (PLoS ONE, 2014)

Tested on: T1, soluble phosphatidic acid phosphatase (PAP), Mg2+-independent, partially purified from bitter melon cotyledons
T1 construct: many copurified proteins, no PAP peptide found by LC/MS/MS
Experiment: Pi release, ammonium molybdate-acetone-acid, A355
Assay type: biochemical, Momordica charantia
Settings: pH 6.5, 53°C, 0.3 mM MgCl2, 50 mM imidazole, DPA 0-500 µM, sigmoidal curve

Km: 595 µM
SMILES: CCCCCCCC/C=C\CCCCCCCC(=O)OC[C@H](COP(=O)(O)O)OC(=O)CCCCCCC/C=C\CCCCCCCC [DPA, 1,2-dioleoyl-sn-glycero-3-phosphate]
